One assay addresses α7 NNRs (Homo sapiens, UniProt P36544). The conditions noted are these: IMR-32 cells.
A further assay has as its target T1, human α7 NNR (Homo sapiens, UniProt P36544).
T1 construct: expressed in transfected cells; host or cells: Xenopus laevis oocytes injected with cRNA
Nature of the assay: Two-electrode voltage-clamp in Xenopus laevis oocytes, potentiation of ACh-evoked α7 currents. The assay is classed as cell-based. The conditions noted are these: for degree of potentiation: 0.1 mM ACh-evoked α7 currents, normalized to reference PAM at 10 μM taken as 100%, submaximum ACh without PAM as 0%; for EC50: potentiating 0.1 mM ACh-evoked α7 currents in oocytes. On the procedure:
FIG. 2 is a concentration response curve obtained in the same manner for a PAM (Example 10). […] Normalized PAM potentiation is plotted on the Y-axis as a function of the concentration of the test modulator (depicted along the X-axis).
(i) Two-Electrode Voltage-Clamp in Xenopus laevis Oocytes
X. laevis oocytes were prepared for electrophysiological experiments as described in the literature (see for example, Briggs. C. A., et al., Neutropharmacology, 1995, 34: 583-590; Briggs, C. A. et al., Neutropharmacology, 1998, 37: 1095-1102). In brief, three to four lobes from ovaries of female adult X. laevis frogs were removed and defolliculated after treatment with collagenase type IA (2 mg/mL; Sigma) prepared in low-Ca^2+ Barth's solution (90 mM NaCl, 1.0 mM KCl, 0.66 mM NaNO3, 2.4 mM NaHCO3, 10 mM H-IEPES, 2.5 mM sodium pyruvate, 0.82 mM MgCl2, and 0.5% (v/v) penicillin-streptomycin solution, pH=7.55, Sigma) for about 1.5 hours to about 2 hours at about 18° C. under constant agitation to obtain isolated oocytes. The oocytes were injected with about 4 ng to about 6 ng of human α7 NNR cRNA, kept at about 18° C. in a humidified incubator in modified Barth's solution (90 mM NaCl, 1.0 mM KCl, 0.66 mM NaNO3, 2.4 mM NaHCO3, 10 mM HEPES, 2.5 mM sodium pyruvate, 0.74 mM CaCl2, 0.82 mM MgCl2, 0.5% (v/v) penicillin-streptomycin solution, pH 7.55) and used about 2 to 7 days after injection. Responses were measured by two-electrode voltage clamp using a parallel oocyte electrophysiology test station (Abbott, Abbott Park, Ill.) (see for example, Trimbull, J. D., Maslana, E. S., McKenna, D. G., Nemcek, T. A., Niforatos, W., Pan, J. Y., Parihar, A. S., Shieh, C. C., Wilkins, J. A., Briggs, C. A., and Bertrand, D. High throughput electrophysiology using a fully automated, multiplexed recording system, Receptors Channels, 2003, 9: 19-28). During recordings, the oocytes were bathed in Ba^2+—OR2 solution (90 mM NaCl, 2.5 mM KCl, 2.5 mM BaCl2, 1.0 mM MgCl2, 5.0 mM HEPES, and 0.0005 mM atropine, pH 7.4) to prevent activation of Ca^2+-dependent currents and held at −60 mV at room temperature (about 20° C.). Test compounds were given for ˜60 seconds before agonist application and subsequently in the presence of 0.1 mM ACh.

In assay [1] the test system is formalin-induced nociceptive behavior in mice. In words: Formalin-induced persistent nociceptive behavior assay. Format: in vivo. Particulars: 20-45 minutes post formalin injection, 10 mg/kg subcutaneously 10 minutes prior to formalin, versus vehicle. The procedure: FIG. 3 is a graphical representation of nocifensive response (licking duration) following treatment with vehicle or a PAM (Example 6) followed by exposure to formalin in mice. […] In Phase II (20-45 minutes post formalin injection) a significant reduction (55%) in licking behavior was observed, indicative of pain relief in this time period.
(iv) Formalin-Induced Persistent Nociceptive Behavior Assay
Nociception was assessed using the formalin test. The mice were placed in open plexiglass observation chambers for 30 minutes to allow them to acclimate to their surroundings; then they were removed for formalin administration. Mice were gently restrained while the dorsum of the hind paw was injected with 20 μL of 2.5% formalin into the plantar surface of the right hind paw with a 30-gauge needle. The animals were returned to the chambers and nociceptive behavior was observed immediately after formalin injection. Mirrors were placed in each chamber to enable unhindered observation. Nociceptive behavior was quantified as the time licking the injected paw for continuous 5 minutes (phase I) and 20-45 minutes (phase II), following formalin injection. Formalin-induced flinching/licking behavior was biphasic. The initial acute phase (phase I, 0-5 minutes) was followed by a relatively short quiescent period, which was then followed by a prolonged tonic response (phase II, 20-45 minutes).

T1 sequence (P36544 23-502): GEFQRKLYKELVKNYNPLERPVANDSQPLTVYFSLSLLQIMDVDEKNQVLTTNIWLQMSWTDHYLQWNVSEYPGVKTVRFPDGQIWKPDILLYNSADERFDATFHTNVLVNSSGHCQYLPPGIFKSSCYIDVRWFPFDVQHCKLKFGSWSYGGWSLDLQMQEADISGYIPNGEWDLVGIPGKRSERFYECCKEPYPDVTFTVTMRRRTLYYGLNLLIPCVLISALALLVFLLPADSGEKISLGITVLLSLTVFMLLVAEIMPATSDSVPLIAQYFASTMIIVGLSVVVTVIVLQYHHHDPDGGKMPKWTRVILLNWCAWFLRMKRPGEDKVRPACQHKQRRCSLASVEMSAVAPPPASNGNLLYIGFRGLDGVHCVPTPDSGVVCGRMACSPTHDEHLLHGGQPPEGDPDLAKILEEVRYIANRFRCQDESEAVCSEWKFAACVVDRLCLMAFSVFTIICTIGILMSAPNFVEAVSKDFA
Chain of α7 NNRs (P36544 23-502): as above
Description for α7 NNRs: (ii) High-Throughput Calcium Flux Assays Using Cells Expressing Endogenous α7 NNRs
As such, PAMs and nicotinic acetylcholine receptor agonists can be identified by using IMR-32 cells that endogenously express various nicotinic receptors including α7 NNRs. […] Accordingly, allosteric modulator compounds described herein can be identified using a fluorescence-based throughput functional assay using cell lines such as IMR-32 neuroblastoma or primary dissociated neurons. […] Any suitable selective α7 agonist can be used.
IMR-32 neuroblastoma cells (ATCC) were grown to confluency in 162 cm^2 tissue culture flasks in minimum essential media supplemented with 10% FBS and 1 mM sodium pyruvate, 0.1 mM non-essential amino acids and 1% antibiotic-antimycotic. […] Calcium flux was measured using a calcium-3 assay kit (Molecular Devices, Sunnyvale, Calif.) or fluo-4. […] Fluorescence measurements were read simultaneously from all the wells by a Fluorometric Imaging Plate Reader (FLIPR) at an excitation wavelength of 480 nm and an emission wavelength of 520 nm. Baseline fluorescence was measured for the first 10 seconds at which 50 μL of 3× concentrations of modulator/test compounds were added to the cell plate and incubated for three to five minutes. The fluorescence intensity was captured every second for the first 1 minute followed by every 2-5 seconds for an additional two to four minutes. […]

Take `CCN1C[C@]2(COC(=O)c3ccccc3N3C(=O)C[C@H](C)C3=O)CC[C@H](OC)[C@@]34[C@@H]5C[C@H]6[C@H](OC)[C@@H]5[C@](O)(C[C@@H]6OC)[C@@](O)([C@@H](OC)[C@H]23)[C@@H]14` [methyllycaconitine]: at α7 NNRs, the “effect on calcium response elicited by agonist in the presence of allosteric modulator” value was “abolished the response”.

As a reminder, the EC50 is the concentration giving half of the maximal effect. As for `Cn1ccc2ccc(CNC(=O)c3ccc(SC(F)(F)F)cc3)cc21` [Example 12, N-[(1-methyl-1H-indol-6-yl)methyl]-4-[(trifluoromethyl)thio]benzamide], on human α7 NNR, the degree of potentiation is listed as 99% and the EC50 turned out to be 1100 nM. The matching figures for `Cn1ccc2cc(CNC(=O)c3ccc(SC(F)(F)F)cc3)ccc21` [Example 10, N-[(1-methyl-1H-indol-5-yl)methyl]-4-[(trifluoromethyl)thio]benzamide]: 91% and 210 nM.

Turning to `O=C(NCc1ccc2[nH]ccc2c1)c1ccc(OCC(F)(F)F)nc1` [Example 6, N-(1H-indol-5-ylmethyl)-6-(2,2,2-trifluoroethoxy)nicotinamide], the “reduction in licking behavior, Phase II” value in assay [1] worked out at 55%.

Values taken from patent US8536221B2, “Amide derivatives as positive allosteric modulators and methods of use thereof” (AbbVie Inc., priority 2008, dated 2013).
